Like-named read-outs stand apart in the source and are kept apart here.
Experiments:
[1] = test system: CD-1 mice; assay type: in vivo; conditions: for Tmax (time at which the maximum response occurred): in vivo, iv
Experimental: In vivo blood pressure was monitored in anaesthetized animals as previously described. A total of 12 wild type male mice were used (n = 3/group) where the groups represented the vehicle (0.9% saline) control, GSNO, SNOPC-2 and SNOPC-6 treatments, respectively. Mean arterial pressure was recorded in anaesthetized mice (2% isoflurane in air) on a homeothermically controlled heating blanket (Harvard Instruments, Edenbridge, UK). A 1.2F microtip pressure catheter (Scisense, Transonic Systems, Ithaca, NY, USA) was inserted into the right carotid artery and basal arterial pressure was recorded for 5 min. Test drug solutions (50 μL containing 500 μmol/L NO ≈ 1 μmol NO/kg body weight) or control (saline) solution were directly injected into the jugular vein using a 30 gauge needle inserted through the underlying muscle. Arterial blood pressure was recorded continuously for a further 5 min following drug administration using a PowerLab data acquisition system and Chart 7 software (ADInstuments, Oxford, UK).

[2] = set-up: species or system mice; conditions: CD-1, mouse, in vivo
Experimental: A total of 48 mice were used (n = 3/group/time point) where the groups represented vehicle (0.9%saline) control, GSNO, SNOPC-2 and SNOPC-6 treatments (n = 3 per group), respectively. A time course study (0, 1, 5 and 15 min) was carried out to characterize the NOx biodistribution after i.n. administration of compounds. Prior to drug administration, mice were anaesthetized by inhaling 2% isoflurane in air via a nose cone. A single volume (20 μL) of test solution in saline (containing 1.25 mmol/L NO ≈ 1 μmol NO/kg body weight) or control (saline) solution was then administered drop wise into the nasal cavity using a micropipette after removing the mouse momentarily from the anaesthetic mask cone and holding it in an upright position. At the appropriate time point animals were exsanguinated by terminal bleed under anaesthesia. Blood and organ samples were collected and processed as described in section 2.4.
Prior to quantification, tissue samples were thawed, weighed and homogenized at 100 mg tissue/mL in phosphate buffered saline (PBS; pH 7.4) using a Silverson model L4RT laboratory homogenizer. Homogenates were centrifuged at 13,000 g for 20 min at 4 °C to remove tissue debris. Whole blood samples were fractionated into plasma (serum + platelets) and blood cells (red and white blood cells) by centrifugation at 1200 g. Cellular blood components were lysed with lysis buffer (5 mmol/L Na o-vanadate, 10 mg/mL benzamidine, 1 mmol/L phenylmethylsulfonyl fluoride (PMSF), 10 mmol/L Tris HCl, 5 mmol/L ethylenediamine tetraacetic acid (EDTA), 50 mmol/L NaCl pH 7.4 and 3.5 mmol/L SDS) at a volume ratio of 1:5 cells: lysis buffer. These samples were centrifuged at 13,000 g for 20 min at 4 °C. Protein content of each sample was quantified using the Bradford assay.
Quantification of total NOx was performed according to a method described by Verdon et al.. Briefly, samples were de-proteinated by mixing the sample with 0.3 mol/L NaOH and aqueous 0.27 mol/L ZnSO4 at a volume ratio of 1:1:2. NOx was determined in 50 μL de-proteinated sample in the form of nitrite using the colorimetric Griess method, [28]. The amount of nitrite in each sample was calculated from a linear calibration curve of known nitrite concentrations (linear range: 1–100 μmol/L) and normalized for total amount of protein (mg), quantified using the Bradford assay. The final concentration, expressed as μM nitrite/mg protein, represents the total NOx in the system. Any remaining nitrite in the infusate (drug solution administered) was not measured as we were more interested in in vivo changes in NOx levels in untreated versus different treated groups at different time points measured but we have previously characterized this.

[3] = CD-1, mouse, in vivo, iv
[4] = set-up: method as in PMID 26686469; conditions: after equilibration of the NO moiety amongst plasma thiols via S-transnitrosylation; cited from earlier work
[5] = cited from earlier work
[6] = inhaled or intranasal, 1 umol/kg
[7] = 10 μmol/L, human plasma and whole blood ex vivo

| Compound | half-life [4] | decomposition within the first 5 min [5, 7] [%] | time to full decomposition [5, 7] [min] | Tmax (time at which the maximum response occurred) ([1]; male, CD-1, mouse) [min] | NOx tmax Heart [2] [min] | NOx tmax Liver [2] [min] | NOx tmax Lung [2] [min] | NOx tmax Plasma [2] [min] | NOx tmax Heart [3] [min] | NOx tmax Liver [3] [min] | NOx tmax Lung [3] [min] | NOx tmax Plasma [3] [min] | also measured |
| --- | --- | --- | --- | --- | --- | --- | --- | --- | --- | --- | --- | --- | --- |
| N[C@@H](CCC(=O)N[C@@H](CSN=O)C(=O)NCC(=O)O)C(=O)O [GSNO, S-nitrosoglutathione] | about 5 min | ~85 | ≤ 15 | – | – | – | – | – | – | – | – | – | reduction in blood pressure ([1]; i.v., 1 μmol NO/kg body weight, CD-1 mice, compared to saline): 30–35%; Tmax (time at which the maximum response occurred) ([1]; mouse): 0.083 min; NOx tmax Heart [2, 6]: 5 min; NOx tmax Liver [2, 6]: 5 min; NOx tmax Lung [2, 6]: 1 min; NOx tmax Plasma [2, 6]: 5 min; NOx tmax Heart ([3]; 1 umol/kg): 3 min; NOx tmax Liver ([3]; 1 umol/kg): 5 min; NOx tmax Lung ([3]; 1 umol/kg): 1 min; NOx tmax Plasma ([3]; 1 umol/kg): 1 min; Half-life of decomposition [5, 7]: ~2 min |
| N[C@@H](CCC(=O)N[C@@H](CSN=O)C(=O)N[C@@H](CCC(=O)N[C@@H](CSN=O)C(=O)NCC(=O)O)C(=O)O)C(=O)O [SNOPC-2] | – | – | – | 0.083 | 5 | 5 | 1 | 5 | 1 | 3 | 1 | 1 | – |
| N[C@@H](CCC(=O)N[C@@H](CSN=O)C(=O)N[C@@H](CCC(=O)N[C@@H](CSN=O)C(=O)N[C@@H](CCC(=O)N[C@@H](CSN=O)C(=O)N[C@@H](CCC(=O)N[C@@H](CSN=O)C(=O)N[C@@H](CCC(=O)N[C@@H](CSN=O)C(=O)N[C@@H](CCC(=O)N[C@@H](CSN=O)C(=O)NCC(=O)O)C(=O)O)C(=O)O)C(=O)O)C(=O)O)C(=O)O)C(=O)O [SNOPC-6] | – | – | – | 0.083 | 5 | 5 | 1 | 5 | 1 | 5 | 1 | 3 | – |
| S-nitrosated cysteine [CySNO] | about 5 min | ~85 | ≤ 15 | – | – | – | – | – | – | – | – | – | Half-life of decomposition ([5]; human): approximately 50 s |

Reference: article PMC5045922, “In vivo pharmacological activity and biodistribution of S-nitrosophytochelatins after intravenous and intranasal administration in mice” (Nitric Oxide, 2016)
